Data: patent US20260224566A1, “Obicetrapib and Ezetimibe Combination Treatment and Fixed Dose Pharmaceutical Compositions” (NewAmsterdam Pharma B.V., priority 2023, published 2026)

Legend:
[1] = test system: participants currently receiving high-intensity statin therapy; assay: ROSE2 Phase 2b clinical trial: safety and tolerability (adverse events, disposition); type: in vivo, human
Method: The safety and tolerability profile of obicetrapib 10 mg, both in combination with ezetimibe 10 mg and as monotherapy, will be assessed by clinical laboratory assessments (chemistry and hematology), vital signs, physical examinations, and the incidence of AEs.
An AE can therefore be any unfavorable and/or unintended sign (including an abnormal laboratory finding), symptom, or disease temporally associated with the use of an investigational medicinal product, whether or not related to the investigational medicinal product. All AEs, including observed or volunteered problems, complaints, or symptoms, are to be recorded on the appropriate eCRF.
AEs, which include clinical laboratory assessment variables, will be monitored and documented from the time of first dose of study treatment until completion of Visit 5. Participants should be instructed to report any AE that they experience to the Investigator, whether or not they think the event is due to study drug. Beginning at the date of the first dose of study treatment, Investigators should make an assessment for AEs at each visit and record the event on the appropriate AE eCRF.
The Investigator will assess the severity (intensity) of each AE as mild, moderate, or severe, and will also categorize each AE as to its potential relationship to study drug using the categories of yes or no.
An AE or adverse reaction is considered serious if, in the view of either the Investigator or Sponsor, it results in any of the following outcomes: • Death; • A life-threatening AE; Note: An AE or adverse reaction is considered “life-threatening” if, in view of either the Investigator or Sponsor, its occurrence places the participant at immediate risk of death. […] However, unexpected complications and/or prolongation of hospitalization that occur during elective surgery should be recorded as AEs and assessed for seriousness. Admission to the hospital for social or situational reasons (ie, no place to stay, live too far away to come for hospital visits, respite care) will not be considered inpatient hospitalizations. • A persistent or significant disability/incapacity or substantial disruption of the ability to conduct normal life functions; • A congenital anomaly/birth defect; or • An important medical event.
The Safety Population will include all participants who receive at least 1 dose of any study drug. Treatment classification will be based on the actual treatment received. The Safety Population will be the primary population used for the safety analyses.

[2] = molecular target: T1, CETP (Homo sapiens, UniProt P11597); assay: Example 13: CETP activity and mass in ApoE*3-Leiden.CETP mice; type: in vivo, mouse
T1 construct: from tissue; host or cells: female ApoE*3-Leiden.CETP transgenic mice dosed in vivo
T1 sequence (P11597 18-493): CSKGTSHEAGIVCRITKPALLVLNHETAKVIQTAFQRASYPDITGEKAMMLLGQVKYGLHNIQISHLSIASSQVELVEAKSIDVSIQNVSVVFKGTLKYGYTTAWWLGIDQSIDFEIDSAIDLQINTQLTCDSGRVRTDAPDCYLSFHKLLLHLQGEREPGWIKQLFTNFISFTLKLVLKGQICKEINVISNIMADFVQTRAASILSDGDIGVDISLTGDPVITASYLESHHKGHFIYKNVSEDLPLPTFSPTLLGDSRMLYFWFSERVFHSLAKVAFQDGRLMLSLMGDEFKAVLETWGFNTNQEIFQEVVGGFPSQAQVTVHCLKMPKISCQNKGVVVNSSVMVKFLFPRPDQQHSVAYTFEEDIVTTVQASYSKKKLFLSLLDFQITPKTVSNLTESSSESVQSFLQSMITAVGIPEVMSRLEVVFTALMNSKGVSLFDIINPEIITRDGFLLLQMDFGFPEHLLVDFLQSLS
Method: The experimental protocol is illustrated in FIG. 82, with time (t) measured in weeks. Female ApoE*3-Leiden.CETP transgenic mice were fed a Western diet with 0.05% w/w cholesterol (equivalent to daily human intake) with (i) no drug (control), or the same diet containing (ii) obicetrapib alone (2 mg/kg/day), (iii) ezetimibe alone (on average 0.6 mg/kg/day) or (iv) the combination of obicetrapib and ezetimibe.

[3] = test system: patients with mild dyslipidemia; conditions: cited from earlier work
[4] = test system: critical physiological systems; conditions: rats, doses up to 300 mg/kg; cited from earlier work
[5] = All Randomized Participants, obicetrapib 10 mg (N = 39), obicetrapib 10 mg + ezetimibe 10 mg (N = 40)
[6] = Safety Population, 10 mg each drug
[7] = Safety Population, 10 mg each drug, last line so labelled (r41)

## CCOC(=O)N1c2ccc(C(F)(F)F)cc2[C@@H](N(Cc2cc(C(F)(F)F)cc(C(F)(F)F)c2)c2ncc(OCCCC(=O)O)cn2)C[C@H]1CC [obicetrapib, {4-[(2-{[3,5-bis(trifluoromethyl)benzyl] [(2R,4S)-1-(ethoxycarbonyl)-2-ethyl-6-(trifluoromethyl)-1,2,3,4-tetrahydroquinolin-4-yl]amino}pyrimidin-5-yl)oxy]butanoic acid}]
[1]; [5]
  Completed the study (with PK), (%): (94.9) %
  Completed treatment, (%): (92.3) %
  Discontinued study early, (%): (5.1) %
  Discontinued treatment, (%): (7.7) %
  Primary reason for early study discontinuation: LOST TO FOLLOW-UP, (%): (2.6) %
  Primary reason for early study discontinuation: OTHER, (%): (0.0) %
  Primary reason for early study discontinuation: WITHDRAWAL BY SUBJECT, (%): (0.0) %
  Primary reason for treatment discontinuation: NON-COMPLIANCE WITH STUDY DRUG, (%): (2.6) %
  Primary reason for treatment discontinuation: OTHER, (%): (0.0) %
  Primary reason for treatment discontinuation: WITHDRAWAL BY SUBJECT, (%): (0.0) %
[1]; [6]
  Any TEAEs by maximum severity: Mild, e: 20
  Any TEAEs by maximum severity: Moderate, (%): (7.7) %
  Any TEAEs leading to death, (%): (0.0) %
  Any TEAEs leading to death, e: 0
  Any serious TEAEs (TESAEs), (%): (5.1) %
  Any serious TEAEs (TESAEs), e: 2
  Any study drug-related TEAEs by maximum severity: Mild, e: 4
  Any study drug-related TEAEs by maximum severity: Moderate, (%): (5.1) %
  Any study drug-related TEAEs by maximum severity: Severe, (%): (5.1) %
  Any study drug-related TEAEs leading to discontinuation of study drug, (%): (5.1) %
  Any study drug-related TEAEs, (%): (2.6) %
  Any study drug-related TESAEs, (%): (2.6) %
  Any study drug-related TESAEs, e: 1
  Any treatment-emergent AEs (TEAEs), e: 20
[1]; Safety Population, 10 mg each drug, first line so labelled (r25)
  Any TEAEs leading to discontinuation of study drug, (%): (0.0) %
[1]; [7]
  Any TEAEs leading to discontinuation of study drug, (%): (0.0) %
  Any TEAEs leading to discontinuation of study drug, e: 0
[2]; FIG. 87B
  cetp mass: without statistically significant changes
[2]; obicetrapib 2 mg/kg/day, ezetimibe on average 0.6 mg/kg/day in Western diet
  CETP activity, change: −98%
[3]; TA-8995-03, 10 mg daily dose
  HDL-C efflux capacity: significant increase
[3]; TA-8995-03, obicetrapib 10 mg
  additional reduction in LDL-C on top of atorvastatin 20 mg: 50.3%
[4]
  adverse effect on critical physiological systems: no adverse effect
